One may read the IC50 as the point on the concentration scale where inhibition reaches its midpoint. A low value points to inhibition by little substance.

T1 sequence (Q92794 whole entry): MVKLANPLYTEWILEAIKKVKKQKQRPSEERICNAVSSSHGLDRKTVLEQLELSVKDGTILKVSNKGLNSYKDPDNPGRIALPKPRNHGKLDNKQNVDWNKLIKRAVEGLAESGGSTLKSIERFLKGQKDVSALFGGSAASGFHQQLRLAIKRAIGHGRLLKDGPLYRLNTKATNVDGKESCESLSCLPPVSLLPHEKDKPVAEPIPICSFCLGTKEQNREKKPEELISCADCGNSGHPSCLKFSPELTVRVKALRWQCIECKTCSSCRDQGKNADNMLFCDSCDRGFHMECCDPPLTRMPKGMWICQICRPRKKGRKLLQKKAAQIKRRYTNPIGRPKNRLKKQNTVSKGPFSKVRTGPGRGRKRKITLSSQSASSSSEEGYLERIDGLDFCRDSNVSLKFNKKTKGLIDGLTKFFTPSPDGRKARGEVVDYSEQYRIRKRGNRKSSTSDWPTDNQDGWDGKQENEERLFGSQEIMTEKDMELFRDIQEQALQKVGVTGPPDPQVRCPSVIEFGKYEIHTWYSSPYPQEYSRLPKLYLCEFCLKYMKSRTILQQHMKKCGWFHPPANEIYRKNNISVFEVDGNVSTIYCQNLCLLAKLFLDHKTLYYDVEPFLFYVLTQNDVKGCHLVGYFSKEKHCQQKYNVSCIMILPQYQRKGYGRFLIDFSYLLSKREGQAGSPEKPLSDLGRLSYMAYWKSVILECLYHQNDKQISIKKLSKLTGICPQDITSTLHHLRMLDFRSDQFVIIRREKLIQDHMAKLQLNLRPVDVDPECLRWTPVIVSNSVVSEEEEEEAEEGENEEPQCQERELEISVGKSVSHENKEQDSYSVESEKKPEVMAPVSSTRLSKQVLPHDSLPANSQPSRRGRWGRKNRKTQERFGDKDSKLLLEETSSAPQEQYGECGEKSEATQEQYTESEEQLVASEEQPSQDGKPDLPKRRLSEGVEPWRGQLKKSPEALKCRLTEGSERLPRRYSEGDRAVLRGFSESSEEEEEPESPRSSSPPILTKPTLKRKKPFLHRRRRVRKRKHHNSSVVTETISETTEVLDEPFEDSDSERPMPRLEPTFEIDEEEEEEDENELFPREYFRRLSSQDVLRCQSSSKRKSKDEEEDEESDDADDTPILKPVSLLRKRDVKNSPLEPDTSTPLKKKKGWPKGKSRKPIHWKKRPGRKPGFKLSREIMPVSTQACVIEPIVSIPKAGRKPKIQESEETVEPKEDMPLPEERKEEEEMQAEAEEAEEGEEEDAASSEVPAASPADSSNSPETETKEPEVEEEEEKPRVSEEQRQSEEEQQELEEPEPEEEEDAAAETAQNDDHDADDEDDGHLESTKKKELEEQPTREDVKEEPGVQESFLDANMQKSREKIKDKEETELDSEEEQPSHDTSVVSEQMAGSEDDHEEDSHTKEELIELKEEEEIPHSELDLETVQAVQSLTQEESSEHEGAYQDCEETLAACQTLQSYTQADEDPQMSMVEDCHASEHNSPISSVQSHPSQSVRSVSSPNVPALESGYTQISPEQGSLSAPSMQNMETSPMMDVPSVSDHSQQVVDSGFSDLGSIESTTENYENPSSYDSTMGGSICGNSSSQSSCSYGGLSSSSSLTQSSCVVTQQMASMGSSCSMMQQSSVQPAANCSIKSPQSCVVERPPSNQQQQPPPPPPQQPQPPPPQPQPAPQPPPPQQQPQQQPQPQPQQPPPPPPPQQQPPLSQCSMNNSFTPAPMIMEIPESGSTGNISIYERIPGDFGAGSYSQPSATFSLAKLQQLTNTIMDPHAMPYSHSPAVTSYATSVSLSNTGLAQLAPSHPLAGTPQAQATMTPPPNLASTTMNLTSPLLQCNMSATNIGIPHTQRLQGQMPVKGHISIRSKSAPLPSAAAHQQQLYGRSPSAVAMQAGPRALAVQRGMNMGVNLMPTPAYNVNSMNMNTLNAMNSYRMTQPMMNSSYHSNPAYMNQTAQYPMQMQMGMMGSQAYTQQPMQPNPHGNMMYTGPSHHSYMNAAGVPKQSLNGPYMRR

This assay has as its target T1, KAT6A (Homo sapiens, UniProt Q92794).
T1 construct: purchased active motife (Active Motif) 81223
As to the kind of experiment: Enzymatic activity assay for KAT6A acetyltransferase (TR-FRET, acetylation of histone substrate H3). The class given is biochemical. On the procedure:
The acetylation effect of KAT6A on histone substrate H3 was determined using the TR-FRET (time-resolved fluorescence resonance energy transfer) method.
• 1) The compounds prepared in the examples of the present disclosure were each dissolved in dimethylsulfoxide to give solutions at a concentration of 10 mmol/L, and then the solutions were diluted to 0.2 mmol/L, i.e., 1 µL of the compound was added to 49 µL of DMSO, and 3-fold dilution was performed to give 10 concentrations. • 2) 50 nL of the test compounds (example compounds) were transferred to 384 reaction plates using Echo, two replicates for each compound, and the plates were centrifuged at a rotation speed of 1000 rpm for 1 min, the final concentration of dimethylsulfoxide (DMSO) being 0.5%. • 3) 2.5 µL of the reaction mixtures obtained in step 2 was added to the 384 reaction plates in step 2), and the plates were centrifuged at 1000 rpm for 1 min and incubated at 25 °C for 10 min. • 4) 2.5 µL of Bio-H3&AcCOA (acetyl-CoA) reaction solution was added to the 384 reaction plates in step 3), and the plates were centrifuged at a rotation speed of 1000 rpm for 1 min and incubated at 25 °C for 90 min. • 5) 5 µL of Eu-Ab& Ulight-SA detection solution was added to the 384 reaction plates in step 4), and the plates were centrifuged at 1000 rpm for 1 min and incubated at 25 °C for 60 min. • 6) The HTRF […] signals were read using a BMG high-throughput drug-screening multi-mode microplate reader.
The acetylation level of the histone H3 was analyzed by the GraphPad Prism 8 software. The reading of the negative control (0.5% DMSO wells) was set as 0% inhibition rate, and the reading of the positive control (wells with the highest concentration of the control compound) was set as 100% inhibition rate. The inhibition rates were calculated, and then IC50 values (half maximal inhibitory concentration) of test compounds were obtained by using a software nonlinear fitting formula; [formula]
Datapositive control: mean of positive control well values; Datanegative control: mean of negative control well values. Table 3. Enzymatic inhibitory activity of example compounds
Turning to `COc1nc(Cc2cocn2)cc2onc(NS(=O)(=O)c3cccc4c3OCCO4)c12` [Example 31, N-(4-Methoxy-6-(oxazol-4-ylmethyl)isoxazolo[4,5-c]pyridin-3-yl)-2,3-dihydrobenzo[b][1,4]dioxine-5-sulfonamide], inhibition was half-maximal at 68.6 nM (IC50). This counts as double-digit nanomolar.

In turn, `COc1nc(Cn2nccn2)cc2onc(NS(=O)(=O)c3cccc4c3ccn4C)c12` [Example 21, N-(6-((2H-1,2,3-Triazol-2-yl)methyl)-4-methoxyisoxazolo[4,5-c]pyridin-3-yl)-1-methyl-1H-indole-4-sulfonamide] came in with an IC50 of 75.9 nM.

`COc1cc2c(cc1S(=O)(=O)Nc1noc3cc(Cn4cccn4)nc(OC)c13)OC(C)(C)C2` [Example 105, N-(6-((1H-pyrazol-1-yl)methyl)-4-methoxyisoxazolo[4,5-c]pyridin-3-yl)-5-methoxy-2,2-dimethyl-2,3-dihydrobenzofuran-6-sulfonamide] came in with an IC50 of 2.18 nM.

`COc1cc2c(c(S(=O)(=O)Nc3noc4cc(Cn5cccn5)nc(OC)c34)c1)OC(C)(C)CC2` [Example 99] showed an IC50 of 2.79 nM.

Regarding `COc1ccc(S(=O)(=O)Nc2noc3cc(Cn4cccn4)nc(OC)c23)c2c1CCCO2` [Example 95, N-(6-((1H-Pyrazol-1-yl)methyl)-4-methoxyisoxazolo[4,5-c]pyridin-3-yl)-5-methoxy-3,4-dihydro-1H-benzopyran-8-sulfonamide], inhibition was half-maximal at 1.63 nM (IC50).

Consider `COc1ccc2cc(C)oc2c1S(=O)(=O)Nc1noc2cc(Cn3cccn3)nc(OC)c12` [Example 65, N-(6-((1H-Pyrazol-1-yl)methyl)-4-methoxyisoxazolo[4,5-c]pyridin-3-yl)-6-methoxy-2-methylbenzofuran-7-sulfonamide], for which the IC50 is 2.01 nM.

With `COc1ccc2ccoc2c1S(=O)(=O)Nc1noc2cc(Cn3ccc(C)n3)nc(OC)c12` [Example 71, 6-Methoxy-N-(4-methoxy-6-((3-methyl-1H-pyrazol-1-yl)methyl)isoxazolo[4,5-c]pyridin-3-yl)benzofuran-7-sulfonamide], the IC50 was found to be 4.49 nM.

As to `COc1nc(Cn2cccn2)cc2onc(NS(=O)(=O)c3ccc4c(c3)OC(F)(F)O4)c12` [Example 89, N-(6-((1H-Pyrazol-1-yl)methyl)-4-methoxyisoxazolo[4,5-c]pyridin-3-yl)-2,2-difluoro-1,3-benzodioxole-5-sulfonamide], the IC50 came to 16.8 nM.

`COc1nc(Cn2cccn2)cc2onc(NS(=O)(=O)c3cccc4occc34)c12` [Example 47, N-(6-((1H-Pyrazol-1-yl)methyl)-4-methoxyisoxazolo[4,5-c]pyridin-3-yl)benzofuran-4-sulfonamide] showed an IC50 of 4.67 nM.

`COc1cc2c(c(S(=O)(=O)Nc3noc4cc(Cn5cccn5)nc(OC)c34)c1)OCCC2` [Example 84, N-(6-((1H-Pyrazol-1-yl)methyl)-4-methoxyisoxazolo[4,5-c]pyridin-3-yl)-6-methoxy-3,4-dihydro-1H-benzopyran-8-sulfonamide] had an IC50 of 1.21 nM.

As to `COc1cc(OC)c(S(=O)(=O)Nc2noc3cc(Cn4cccn4)nc(OC)c23)c2c1CCO2` [Example 98, N-(6-((1H-pyrazol-1-yl)methyl)-4-methoxyisoxazolo[4,5-c]pyridin-3-yl)-4,6-dimethoxy-2,3-dihydrobenzofuran-7-sulfonamide], it took 0.84 nM to reach half-maximal inhibition (IC50).

In turn, `COc1nc(Cn2cccn2)cc2onc(NS(=O)(=O)c3cccc4ccn(C)c34)c12` [Example 49, N-(6-((1H-Pyrazol-1-yl)methyl)-4-methoxyisoxazolo[4,5-c]pyridin-3-yl)-1-methyl-1H-indole-7-sulfonamide] came in with an IC50 of 67.8 nM. This IC50 is about 81-fold higher than that of the molecule before.

On to `COc1nc(Cn2cccn2)cc2onc(NS(=O)(=O)c3cc(C4CC4)cc4c3OCCC4)c12` [Example 106, N-(6-((1H-pyrazol-1-yl)methyl)-4-methoxyisoxazolo[4,5-c]pyridin-3-yl)-6-cyclopropyl-3,4-dihydro-1H-benzopyran-8-sulfonamide], for which the IC50 is 0.94 nM.

`COc1ccc2c(c1S(=O)(=O)Nc1noc3cc(Cn4cccn4)nc(OC)c13)OC(C)(C)C2` [Example 100, N-(6-((1H-pyrazol-1-yl)methyl)-4-methoxyisoxazolo[4,5-c]pyridin-3-yl)-6-methoxy-2,2-dimethyl-3H-benzofuran-7-sulfonamide] had an IC50 of 1.06 nM.

Consider `COc1nc(Cn2nccn2)cc2onc(NS(=O)(=O)c3cccc4c3OCCO4)c12` [Example 29, N-(6-((2H-1,2,3-Triazol-2-yl)methyl)-4-methoxyisoxazolo[4,5-c]pyridin-3-yl)-2,3-dihydrobenzo[b][1,4]dioxine-5-sulfonamide], for which half-maximal inhibition (IC50) required 1.57 nM.

The molecule `COc1ccc2occ(S(=O)(=O)Nc3noc4cc(Cn5cccn5)nc(OC)c34)c2c1` [Example 78, N-(6-((1H-Pyrazol-1-yl)methyl)-4-methoxyisoxazolo[4,5-c]pyridin-3-yl)-5-methoxybenzofuran-3-sulfonamide] registered an IC50 of 7.97 nM.

In turn, `COc1ccc2c(c1S(=O)(=O)Nc1noc3cc(Cn4cccn4)nc(OC)c13)OCCO2` [Example 73, N-(6-((1H-Pyrazol-1-yl)methyl)-4-methoxyisoxazolo[4,5-c]pyridin-3-yl)-6-methoxy-2,3-dihydrobenzo[b][1,4]dioxine-5-sulfonamide] had an IC50 of 0.97 nM.

Molecule `COc1cc2c(cc1S(=O)(=O)Nc1noc3cc(Cn4cccn4)nc(OC)c13)OCCC2` [Example 67, N-(6-((1H-Pyrazol-1-yl)methyl)-4-methoxyisoxazolo[4,5-c]pyridin-3-yl)-6-methoxy-3,4-dihydro-1H-benzopyran-7-sulfonamide] registered an IC50 of 1.31 nM.

Consider `[2H]C([2H])(c1cc2onc(NS(=O)(=O)c3cc4c(cc3OC)CCO4)c2c(OC)n1)n1cccn1` [Example 104, N-(6-((1H-pyrazol-1-yl)methyl-d2)-4-methoxyisoxazolo[4,5-c]pyridin-3-yl)-5-methoxy-2,3-dihydrobenzofuran-6-sulfonamide], for which half-maximal inhibition (IC50) was put at 1.77 nM.

For the molecule `COc1nc(Cc2ccccn2)cc2onc(NS(=O)(=O)c3cccc4c3OCCO4)c12` [Example 32, N-(4-Methoxy-6-(pyridin-2-ylmethyl)isoxazolo[4,5-c]pyridin-3-yl)-2,3-dihydrobenzo[b][1,4]dioxine-5-sulfonamide], it took 34.7 nM to reach half-maximal inhibition (IC50).

The molecule `C#Cc1ccc(S(=O)(=O)Nc2noc3cc(Cn4cccn4)nc(OC)c23)c2occc12` [Example 96, N-(6-((1H-pyrazol-1-yl)methyl)-4-methoxyisoxazolo[4,5-c]pyridin-3-yl)-4-ethynyl-benzofuran-7-sulfonamide] returned an IC50 of 6.67 nM.

`COc1nc(Cn2nccn2)cc2onc(NS(=O)(=O)c3cccc4c3OCC4)c12` [Example 12, N-(6-((2H-1,2,3-Triazol-2-yl)methyl)-4-methoxyisoxazolo[4,5-c]pyridin-3-yl)-2,3-dihydrobenzofuran-7-sulfonamide] had an IC50 of 66.7 nM. Compared with the last molecule, the IC50 is about 10-fold higher.

Molecule `[2H]c1cc2ccc(OC)c(S(=O)(=O)Nc3noc4cc(Cn5cccn5)nc(OC)c34)c2o1` [Example 102, N-(6-((1H-pyrazol-1-yl)methyl)-4-methoxyisoxazolo[4,5-c]pyridin-3-yl)-6-methoxybenzofuran-7-sulfonamide-2-d] came in with an IC50 of 0.83 nM. This IC50 is about 80-fold lower than that of the molecule before.

The molecule `COc1c(Cl)c2c(c(OC)c1S(=O)(=O)Nc1noc3cc(Cn4cccn4)nc(OC)c13)CCC2` [Example 63, N-(6-((1H-Pyrazol-1-yl)methyl)-4-methoxyisoxazolo[4,5-c]pyridin-3-yl)-7-chloro-4,6-dimethoxy-2,3-dihydro-1H-indene-5-sulfonamide] gave an IC50 of 5.98 nM. This IC50 lies about 7.2-fold higher than the previous one.

The molecule `COc1ccc(S(=O)(=O)Nc2noc3cc(Cn4cccn4)nc(OC)c23)c2c1C=CCO2` [Example 94, N-(6-((1H-Pyrazol-1-yl)methyl)-4-methoxyisoxazolo[4,5-c]pyridin-3-yl)-5-methoxy-2H-benzopyran-8-sulfonamide] had an IC50 of 2.37 nM.

For the molecule `COc1ccc2ccoc2c1S(=O)(=O)Nc1noc2cc(Cn3cc(C)cn3)nc(OC)c12` [Example 83, 6-Methoxy-N-(4-methoxy-6-((4-methyl-1H-pyrazol-1-yl)methyl)isoxazolo[4,5-c]pyridin-3-yl)benzofuran-7-sulfonamide], the IC50 stood at 4.12 nM. Against the preceding molecule, the IC50 is about 1.7-fold higher.

Consider `COc1nc(Cn2cccn2)cc2onc(NS(=O)(=O)c3cccc4nc(C)oc34)c12` [Example 48, N-(6-((1H-Pyrazol-1-yl)methyl)-4-methoxyisoxazolo[4,5-c]pyridin-3-yl)-2-methylbenzo[d]oxazole-7-sulfonamide], for which the IC50 was determined as 22.7 nM. Compared with the last molecule, the IC50 is about 5.5-fold higher.

Take `C#Cc1ccc(S(=O)(=O)Nc2noc3cc(Cn4cccn4)nc(OC)c23)c2c1CCO2` [Example 33, N-(6-((1H-Pyrazol-1-yl)methyl)-4-methoxyisoxazolo[4,5-c]pyridin-3-yl)-4-ethynyl-2,3-dihydrobenzofuran-7-sulfonamide]: the IC50 is 3.13 nM.

Values taken from patent EP4692094A1 (Beijing Konruns Pharmaceutical Co., Ltd., priority 2023, dated 2024).
